From patent US20230129258A1, “HETEROTANDEM BICYCLIC PEPTIDE COMPLEXES” (BicycleTx Limited, priority 2019, published 2023)
Values joined by “and” are separate entries in the source; they are usually repeats but may differ in a detail not shown here. Identical values can stand only once. Like-named read-outs stand apart in the source and are kept apart here. Starred links: 1 amine or outer side, 2 acyl side, 3 side chain; linkers in the order of their positions; H or OH if unused. Positions of bridges follow the written chain, without caps; N, C: chain ends. Non-standard residues stand in square brackets, D forms with d. Chains are numbered I, II in the order given. X1 = O=C(CCOCCOCCOCCN(CCOCCOCCOCCn1cc(CCC(=O)[*:2])nn1)CCOCCOCCOCCn1cc(CCC(=O)[*:3])nn1)[*:1]; TATA = O=C(CC[*:1])N1CN(C(=O)CC[*:2])CN(C(=O)CC[*:3])C1; d1Nal = N[C@H](Cc1cccc2ccccc12)C(=O)O; Hyp = O=C(O)[C@@H]1C[C@@H](O)CN1; hArg = N=C(N)NCCCC[C@H](N)C(=O)O; tBuAla = CC(C)(C)C[C@H](N)C(=O)O; Nle = CCCC[C@H](N)C(=O)O

What was measured:
CD137 = CD137 (Homo sapiens, UniProt Q07011); test: CD137 reporter assay (Promega, Jurkat cells) in co-culture with EphA2-expressing tumor cells (A549, PC3, HT29); assay type: cell-based; set-up: host or cells: Jurkat reporter cells; conditions: for EC50: EC50 (nM); for EC50 / Emax: individual replicates
Chain of CD137 (Q07011 24-255): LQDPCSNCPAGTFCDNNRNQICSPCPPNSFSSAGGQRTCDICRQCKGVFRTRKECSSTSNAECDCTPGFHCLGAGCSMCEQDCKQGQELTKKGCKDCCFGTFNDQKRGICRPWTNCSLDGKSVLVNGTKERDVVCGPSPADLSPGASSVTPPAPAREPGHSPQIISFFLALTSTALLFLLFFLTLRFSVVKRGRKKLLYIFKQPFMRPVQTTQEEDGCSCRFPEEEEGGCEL
Summary of the method: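 Readout is Bio-Glo luminescence after 6 h, 37° C co-culture of CD137 reporter Jurkat cells, target tumor cells (EphA2: A549, PC3, HT29; PD-L1: RKO) and titrated test articles in 1% FBS RPMI. EC50 (nM) and maximal induction come from fold change over untreated co-culture.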

[1] = Pharmacokinetics in SD rats; assay type: in vivo; conditions: for half-life: iv
Summary of the method: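 Male SD rats received the heterotandem Bicycle complex IV bolus or 15-min IV infusion in 25 mM histidine HCl, 10% sucrose pH 7. Serial K2-EDTA plasma analysed by LC-MS/MS (Orbitrap, positive mode); parameters from non-compartmental analysis.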

CT26 #7 tumors = test: Anti-tumor activity in syngeneic Nectin-4 overexpressing CT26 tumor model (CT26 #7); assay type: in vivo, BALB/c-hCD137 mice; conditions: 5 mg/kg ip Q3D, 6 doses; from day 7 forward
Experimental: 6-8 weeks old BALB/c-hCD137 female mice were inoculated in the flank with 3×10^5 syngeneic Nectin-4 overexpressing CT26 cells (CT26 #7). When tumors reached around 70 mm^3 size on average, mice were randomized to receive vehicle or 5 mg/kg BCY11863 intraperitoneally every three days (6 doses total). Tumor growth was monitored by caliper measurements until day 14 after treatment initiation.

[2] = Pharmacokinetic profiles in plasma and tumor tissue of CT26 #7 tumor bearing animals; assay type: in vivo, BALB/c mice; conditions: female, BALB/c, mouse, single iv 5 mg/kg
Experimental: 6-8 weeks old BALB/c female mice were inoculated in the flank with 3×10^5 syngeneic Nectin-4 overexpressing CT26 cells (CT26 #7). When tumors reached around 400 mm^3 size on average, mice were randomized to receive a single intravenous dose of vehicle or 5 mg/kg BCY11863. A cohort of mice (n=3/timepoint) were sacrificed at 0.25, 0.5, 1, 2, 4, 8 and 24 h timepoints and harvested plasma and tumor tissue were analyzed for BCY11863. For tumor BCY11863 content analysis, tumor homogenate was prepared by homogenizing tumor tissue with 10 volumes (w:v) of homogenizing solution (MeOH/15 mM PBS (1:2, v:v)). 40 μL of sample was quenched with 200 μL IS1 and the mixture was mixed by vortexing for 10 min at 800 rpm and centrifuged for 15 min at 3220 g at 4° C. The supernatant was transfer to another clean 96-well plate and centrifuged for 5 min at 3220 g at 4° C., and 10.0 μL of supernatant was then injected for LC-MS/MS analysis using an Orbitrap Q Exactive in positive ion mode to determine the concentrations of analyte. For plasma BCY11863 content analysis, blood samples were collected in K2-EDTA tubes and immediately processed to plasma by centrifugation at approximately 4° C., 3000 g. 40 μL of plasma sample was quenched with 200 μL IS1 and the mixture was mixed by vortexing for 10 min at 800 rpm and centrifuged for 15 min at 3220 g at 4° C. […]

cyno Nectin-4 = test: Multicomponent SPR: Nectin-4 binding to complex captured on biotinylated human CD137, cyno Nectin-4; conditions: Sandwich Assay, Nectin-4 ECD, biotinylated human CD137 as capture reagent; read-out: SPR KD NHP
Source text: To understand whether the binding of BCY11863 to Nectin-4 was altered in the context of the ternary complex, i.e. when also bound to CD137, a multicomponent SPR binding assay was developed. BCY11863 was first captured to human CD137 immobilized on the SPR chip surface and then Nectin-4 from different species were passed over the chip to determine their affinities to the captured BCY11863 (see FIG. 21C). The affinities to Nectin-4 were generally maintained in the presence of CD137 binding as shown below: […]

Compound: I: A[hArg]DC[Hyp]LVNPLCLEP[d1Nal]WTC-NH2 / II: Ac-C[tBuAla]PE[dK]PYCFADPY[Nle]CA-NH2 / III: Ac-C[tBuAla]PE[dK]PYCFADPY[Nle]CA-NH2 (linker I:4-I:11-I:18, II:1-II:8-II:15, III:1-III:8-III:15 via TATA; linker I:N-II:5-III:5 via X1) [BCY13272]
- EC50 (CD137; co-culture with HT-29): 0.567 nM and 0.187 nM and 0.205 nM
- EC50 (CD137; co-culture with PC-3): 0.0805 nM and 0.0898 nM and 0.245 nM
- CD137 activation in CD137 reporter assay (CD137; FIG. 16, PC3, A549 and HT29): induces strong CD137 activation
- Emax (CD137; co-culture with A549): 25.7 fold and 23.6 fold and 30.2 fold
- Emax (CD137; co-culture with HT-29): 36.5 fold and 26 fold and 36.4 fold
- Emax (CD137; co-culture with PC-3): 44.2 fold and 53 fold and 44.5 fold
- terminal half life ([1]; 3.6 mg/kg IV infusion (15 min), n=3): 2.9 h
- half-life ([1]; male, SD, rat, plasma, 3.6 mg/kg, 3.6 mg/kg IV infusion (15 min), n=3, read-out: terminal half life (converted)): 2.5 h
- half-life ([1]; male, SD, rat, plasma, IV Inf (15 minutes), read-out: T1/2 (converted)): 2.5 h
- clearance ([1]; male, SD, rat, plasma, 3.6 mg/kg IV infusion (15 min), n=3, read-out: clearance): 7.5 mL/min/kg
- Vd ([1]; male, SD, rat, plasma, 3.6 mg/kg IV infusion (15 min), n=3, read-out: volume of distribution at steady state (Vdss)): 1 L/kg
- Vd ([1]; male, SD, rat, plasma, IV Inf (15 minutes), read-out: Vdss): 1 L/kg

Compound: CCCC[C@@H]1NC(=O)[C@H](Cc2ccc(O)cc2)NC(=O)[C@@H]2CCCN2C(=O)[C@H](CC(=O)O)NC(=O)[C@H](C)NC(=O)[C@H](Cc2ccccc2)NC(=O)[C@@H]2CSCCC(=O)N3CN(CN(C3)C(=O)CCSC[C@@H](C(=O)N[C@@H](C)C(N)=O)NC1=O)C(=O)CCSC[C@H](NC(C)=O)C(=O)N[C@@H](CC(C)(C)C)C(=O)N1CCC[C@H]1C(=O)N[C@@H](CCC(=O)O)C(=O)N[C@H](CCCCNC(=O)CCc1cn(CCOCCOCCOCCN(CCOCCOCCOCCC(=O)N[C@H]3CSCCC(=O)N4CN5CN(C4)C(=O)CCSC[C@H](NC(=O)[C@@H](CC(=O)O)NC(=O)[C@H](Cc4cccc6ccccc46)NC(=O)[C@@H]4CCCN4C3=O)C(=O)N[C@@H](CCSC)C(=O)N[C@@H](CCCCNC(=N)N)C(=O)N[C@@H](CC(=O)O)C(=O)N[C@@H](Cc3c[nH]c4ccccc34)C(=O)N[C@@H](CO)C(=O)N[C@@H]([C@@H](C)O)C(=O)N3CCC[C@H]3C(=O)N3C[C@H](O)C[C@H]3C(=O)N[C@@H](Cc3c[nH]c4ccccc34)C(=O)N[C@H](C(N)=O)CSCCC5=O)CCOCCOCCOCCn3cc(CCC(=O)NCCCC[C@H]4NC(=O)[C@H](CCC(=O)O)NC(=O)[C@@H]5CCCN5C(=O)[C@H](CC(C)(C)C)NC(=O)[C@@H](NC(C)=O)CSCCC(=O)N5CN6CN(C5)C(=O)CCSC[C@H](NC(=O)[C@H](Cc5ccc(O)cc5)NC(=O)[C@@H]5CCCN5C4=O)C(=O)N[C@@H](Cc4ccccc4)C(=O)N[C@@H](C)C(=O)N[C@@H](CC(=O)O)C(=O)N4CCC[C@H]4C(=O)N[C@@H](Cc4ccc(O)cc4)C(=O)N[C@@H](CCCC)C(=O)N[C@H](C(=O)N[C@@H](C)C(N)=O)CSCCC6=O)nn3)nn1)C(=O)N1CCC[C@H]1C(=O)N[C@@H](Cc1ccc(O)cc1)C(=O)N2 [BCY11863]
- tumor growth (CT26 #7 tumors): significantly (p<0.0001, Student's t-test) reduced the tumor growth
- half-life ([2]; plasma, read-out: plasma T1/2 (converted)): 1.65 h
- half-life ([2]; tumor tissue, read-out: tumor T1/2 (converted)): 13.4 h
- Clp ([1]; 100 mg/kg BCY11863 IV): 13 mL/min/kg
- Vdss ([1]; 100 mg/kg BCY11863 IV): 2.3 L/kg
- fraction metabolized to BCY15155 ([1]; IV administration of BCY11863, 100 mg/kg): < 1%
- bioavailability from SC dosing ([1]; SC dosing): high
- clearance (in words) ([1]; Table 6B): low clearance molecule
- volume of distribution (in words) ([1]; Table 6B): volume of distribution larger than plasma volume
- conversion to BCY14602 ([1]; first 24 h, IV BCY11863, 100 mg/kg): No significant conversion
- half-life ([1]; male, SD, rat, plasma, 2 mg/kg, 2 mg/kg IV, n=3, read-out: terminal half life (converted)): 4.1 h
- clearance ([1]; male, SD, rat, plasma, 2 mg/kg IV, n=3, read-out: clearance): 7.7 mL/min/kg
- Vd ([1]; male, SD, rat, plasma, 2 mg/kg IV, n=3, read-out: volume of distribution at steady state (Vdss)): 1.6 L/kg
- clearance ([1]; male, rat, plasma, SD rats, 1.9 mg/kg IV Bolus, read-out: Clp): 7.7 mL/min/kg
- Vd ([1]; male, rat, plasma, SD rats, 1.9 mg/kg IV Bolus, read-out: Vdss): 1.6 L/kg
- clearance ([1]; male, rat, plasma, SD rats, 3.2 mg/kg IV Inf (15 min), read-out: Clp): 9.3 mL/min/kg
- Vd ([1]; male, rat, plasma, SD rats, 3.2 mg/kg IV Inf (15 min), read-out: Vdss): 1.3 L/kg
- bioavailability ([1]; male, rat, plasma, SD rats, 6.3 mg/kg SC): 95%
- Kd (cyno Nectin-4): 28 ± 5 nM
